Measurements taken from patent EP4603105A1, “PHARMACEUTICAL COMPOSITION CONTAINING CYCLIC COMPOUND HAVING SELECTIVE KRAS INHIBITORY EFFECT AGAINST HRAS AND NRAS” (CHUGAI SEIYAKU KABUSHIKI KAISHA, priority 2022, dated 2024).

Tests used:
[1] = target: GDP-bound KRAS wild-type protein (Homo sapiens, UniProt P01116); test: Binding to KRAS by surface plasmon resonance (SPR), dissociation constant KD; conditions: 1:1 binding model
Summary of the method: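 GDP-bound biotin-Avi RAS captured at ~100–300 RU, 30°C, pH 7.4 HBS containing 10 µM GDP, 10 mM MgCl2, 1 mM DTT, 0.01% Tween 20 and 4% DMSO. KD by 1:1 fitting.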

[2] = target: GDP-bound NRAS wild-type protein (Homo sapiens, UniProt P01111); test: Binding to NRAS by surface plasmon resonance (SPR), KD and KD ratio to KRAS; conditions: ratio of KD for GDP-bound NRAS wild-type protein to KD for KRAS
Sequence of GDP-bound NRAS wild-type protein (P01111 whole entry): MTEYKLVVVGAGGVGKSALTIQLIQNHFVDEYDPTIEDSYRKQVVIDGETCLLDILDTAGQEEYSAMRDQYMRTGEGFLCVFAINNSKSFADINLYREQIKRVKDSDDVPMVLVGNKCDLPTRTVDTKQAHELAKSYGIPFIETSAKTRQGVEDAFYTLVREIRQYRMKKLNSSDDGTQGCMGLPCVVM
Summary of the method: (§1)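 Compound binding is evaluated by SPR single-cycle kinetics, with concentrations added intermittently from low to high for 75 s each. Target surfaces carry GDP-loaded biotinylated Avi-RAS at about 100–300 RU, regenerated after each cycle; temperature 30°C. A 1:1 binding model gives KD.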

[3] = target: HRAS wild-type protein (Homo sapiens, UniProt P01112); test: Binding to HRAS by surface plasmon resonance (SPR), KD and KD ratio to KRAS; conditions: ratio of KD for HRAS wild-type protein to KD for KRAS
Sequence of HRAS wild-type protein (P01112 whole entry): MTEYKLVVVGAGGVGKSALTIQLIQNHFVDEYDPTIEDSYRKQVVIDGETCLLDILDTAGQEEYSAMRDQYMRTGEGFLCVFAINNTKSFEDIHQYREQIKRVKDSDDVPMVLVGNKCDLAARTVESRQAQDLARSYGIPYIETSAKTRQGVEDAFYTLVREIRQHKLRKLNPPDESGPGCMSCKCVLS
Summary of the method: as §1

[4] = test system: human lung cancer strain NCI-H441; test: NCI-H441 cell proliferation inhibitory activity (CellTiter-Glo, 4 days); assay type: cell-based; conditions: NCI-H441 cells, 4 days, read-out: NCl-H441 IC50
Summary of the method: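 Proliferation was scored by […] measured after the reagent was added to cultures kept at 37°C in 5% carbon dioxide.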

Sequence of GDP-bound KRAS wild-type protein (P01116 1-188 isoform P01116-2): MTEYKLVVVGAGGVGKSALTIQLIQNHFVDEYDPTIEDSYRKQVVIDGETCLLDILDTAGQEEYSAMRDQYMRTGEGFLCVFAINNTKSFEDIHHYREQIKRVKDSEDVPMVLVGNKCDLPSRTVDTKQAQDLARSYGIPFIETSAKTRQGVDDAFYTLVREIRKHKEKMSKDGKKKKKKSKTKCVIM

Row | Compound | Kd [1] | NRAS /KRAS [2] | HRAS /KRAS [3] | IC50 [4]
1 | CCC(CC)[C@H]1C(=O)N(C)[C@H](C(=O)N(C)C)CC(=O)N(C)[C@@H](COC)C(=O)N[C@@H]([C@@H](C)CC)C(=O)N(C)CC(=O)N(C)[C@H]2C/C=C\CCN(C2=O)[C@@H](Cc2ccc(C(F)(F)F)cc2)C(=O)N(C)CC(=O)N[C@@H](CCc2ccc(Cl)c(Cl)c2)C(=O)N2C[C@H](OC3CCC3)C[C@H]2C(=O)NC2(CC(C)(C)C2)C(=O)N1C [PP2642] | 0.44 nM | AA (a compound having 20 or more is denoted as AA) | A (a compound having 10 or more and less than 20 is denoted as A) | 36.6 nM
2 | CCC[C@H]1C(=O)N[C@@H]([C@@H](C)CC)C(=O)N(C)CC(=O)N(C)[C@H]2C/C=C\CCN(C2=O)[C@@H](Cc2ccc(C)cc2)C(=O)N(C)CC(=O)N[C@@H](CCc2ccc(Cl)c(Cl)c2)C(=O)N2C[C@H](OC3CCC3)C[C@H]2C(=O)NC2(CC(C)(C)C2)C(=O)N(C)[C@@H](C(CC)CC)C(=O)N(C)[C@H](C(=O)N(C)C)CC(=O)N1C [PP2644] | 0.81 nM | AA (a compound having 20 or more is denoted as AA) | A (a compound having 10 or more and less than 20 is denoted as A) | 75 nM
3 | CCC(CC)[C@H]1C(=O)N(C)[C@H](C(=O)N(C)C)CC(=O)N(C)[C@@H](COC)C(=O)N[C@@H]([C@@H](C)CC)C(=O)N2CCC[C@H]2C(=O)N(C)[C@H]2C/C=C\CCN(C2=O)[C@@H](Cc2ccc(C(F)(F)F)cc2)C(=O)N(C)CC(=O)N[C@@H](CCc2ccc(Cl)c(Cl)c2)C(=O)N2C[C@H](OC3CCC3)C[C@H]2C(=O)NC2(CC(C)(C)C2)C(=O)N1C [PP2645] | 1.1 nM | AA (a compound having 20 or more is denoted as AA) | A (a compound having 10 or more and less than 20 is denoted as A) | 86.7 nM
4 | CCC[C@H]1C(=O)N[C@@H]([C@@H](C)CC)C(=O)N2CCC[C@H]2C(=O)N(C)[C@H]2C/C=C\CCN(C2=O)[C@@H](Cc2ccc(C(F)F)cc2)C(=O)N(C)CC(=O)N[C@@H](CCc2ccc(Cl)c(Cl)c2)C(=O)N2C[C@H](OC3CCC3)C[C@H]2C(=O)NC2(CC(C)(C)C2)C(=O)N(C)[C@@H](C(CC)CC)C(=O)N(C)[C@H](C(=O)N(C)C)CC(=O)N1C [PP2646] | 1.6 nM | AA (a compound having 20 or more is denoted as AA) | A (a compound having 10 or more and less than 20 is denoted as A) | 92.6 nM
5 | CCC(CC)[C@H]1C(=O)N(C)[C@H](C(=O)N(C)C)CC(=O)N(C)[C@@H](COC)C(=O)N[C@@H]([C@@H](C)CC)C(=O)N(C)CC(=O)N(C)[C@H]2C/C=C\CCN(C2=O)[C@@H](Cc2ccc(C(F)(F)F)cc2)C(=O)N(C)CC(=O)N[C@@H](CCc2ccc(Cl)c(Cl)c2)C(=O)N2C[C@H](OC3CCCC3)C[C@H]2C(=O)NC2(CC(C)(C)C2)C(=O)N1C [PP2648] | 0.85 nM | A (a compound having 10 or more and less than 20 is denoted as A) | A (a compound having 10 or more and less than 20 is denoted as A) | 68.5 nM
6 | CCC(CC)[C@H]1C(=O)N(C)[C@H](C(=O)N(C)C)CC(=O)N(C)[C@@H](COC)C(=O)N[C@@H]([C@@H](C)CC)C(=O)N(C)CC(=O)N(C)[C@H]2C/C=C\CCN(C2=O)[C@@H](Cc2ccc(C(F)F)cc2)C(=O)N(C)CC(=O)N[C@@H](CCc2ccc(Cl)c(Cl)c2)C(=O)N2C[C@H](OC3CCCC3)C[C@H]2C(=O)NC2(CC(C)(C)C2)C(=O)N1C [PP2649] | 0.4 nM | AA (a compound having 20 or more is denoted as AA) | A (a compound having 10 or more and less than 20 is denoted as A) | 61 nM
7 | CCC(CC)[C@H]1C(=O)N(C)[C@H](C(=O)N(C)C)CC(=O)N(C)[C@@H](COC)C(=O)N[C@@H]([C@@H](C)CC)C(=O)N2CCC[C@H]2C(=O)N(C)[C@H]2C/C=C\CCN(C2=O)[C@@H](Cc2ccc(C(F)(F)F)cc2)C(=O)N(C)CC(=O)N[C@@H](CCc2ccc(Cl)c(Cl)c2)C(=O)N2C[C@H](OC3CCCC3)C[C@H]2C(=O)NC2(CC(C)(C)C2)C(=O)N1C [PP2651] | 1.9 nM | AA (a compound having 20 or more is denoted as AA) | A (a compound having 10 or more and less than 20 is denoted as A) | 147 nM
8 | CCC(CC)[C@H]1C(=O)N(C)[C@H](C(=O)N(C)C)CC(=O)N(C)[C@@H](COC)C(=O)N[C@@H]([C@@H](C)CC)C(=O)N2CCC[C@H]2C(=O)N(C)[C@H]2C/C=C\CCN(C2=O)[C@@H](Cc2ccc(C(F)F)cc2)C(=O)N(C)CC(=O)N[C@@H](CCc2ccc(Cl)c(Cl)c2)C(=O)N2C[C@H](OC3CCCC3)C[C@H]2C(=O)NC2(CC(C)(C)C2)C(=O)N1C [PP2652] | 1.5 nM | AA (a compound having 20 or more is denoted as AA) | A (a compound having 10 or more and less than 20 is denoted as A) | 82.7 nM
9 | CC[C@H](C)[C@@H]1NC(=O)[C@H](COC)N(C)C(=O)C[C@@H](C(=O)N(C)C)N(C)C(=O)[C@H](C2CCCCC2)N(C)C(=O)C2(CC(C)(C)C2)NC(=O)[C@@H]2C[C@@H](OC(C)C)CN2C(=O)[C@H](CCc2cc(F)c(C(F)(F)F)c(F)c2)NC(=O)CN(C)C(=O)[C@H](Cc2ccc(C)cc2)N2CC/C=C\C[C@@H](C2=O)N(C)C(=O)CN(C)C1=O [PP2660] | 0.18 nM | A (a compound having 10 or more and less than 20 is denoted as A) | A (a compound having 10 or more and less than 20 is denoted as A) | 14.3 nM
10 | CC[C@H](C)[C@@H]1NC(=O)[C@H](COC)N(C)C(=O)C[C@@H](C(=O)N(C)C)N(C)C(=O)[C@H](C2CCCCC2)N(C)C(=O)C2(CC(C)(C)C2)NC(=O)[C@@H]2C[C@@H](OC(C)C)CN2C(=O)[C@H](CCc2ccc(Cl)c(Cl)c2)NC(=O)CN(C)C(=O)[C@H](Cc2ccc(C(F)(F)F)cc2)N2CC/C=C\C[C@@H](C2=O)N(C)C(=O)CN(C)C1=O [PP2662] | 0.29 nM | AA (a compound having 20 or more is denoted as AA) | A (a compound having 10 or more and less than 20 is denoted as A) | 13.1 nM
11 | CCO[C@@H]1C[C@H]2C(=O)NC3(CC(C)(C)C3)C(=O)N(C)[C@@H](C3CCCC3)C(=O)N(C)[C@H](C(=O)N3CCCCC3)CC(=O)N(C)[C@@H](COC)C(=O)N[C@@H]([C@@H](C)CC)C(=O)N(C)CC(=O)N(C)[C@H]3C/C=C\CCN(C3=O)[C@@H](Cc3ccc(C(F)(F)F)cc3)C(=O)N(C)CC(=O)N[C@@H](CCc3ccc(Cl)c(Cl)c3)C(=O)N2C1 [PP2670] | 0.48 nM | AA (a compound having 20 or more is denoted as AA) | A (a compound having 10 or more and less than 20 is denoted as A) | 25.2 nM
12 | CC[C@H](C)[C@@H]1NC(=O)[C@H](COC)N(C)C(=O)C[C@@H](C(=O)N2CCCCC2)N(C)C(=O)[C@H](C2CCCC2)N(C)C(=O)C2(CC(C)(C)C2)NC(=O)[C@@H]2C[C@@H](OC(C)C)CN2C(=O)[C@H](CCc2ccc(Cl)c(Cl)c2)NC(=O)CN(C)C(=O)[C@H](Cc2ccc(C(F)(F)F)cc2)N2CC/C=C\C[C@@H](C2=O)N(C)C(=O)CN(C)C1=O [PP2671] | 0.67 nM | A (a compound having 10 or more and less than 20 is denoted as A) | A (a compound having 10 or more and less than 20 is denoted as A) | 26.3 nM
13 | CCC[C@H]1C(=O)N[C@@H]([C@@H](C)CC)C(=O)N(C)CC(=O)N(C)[C@H]2C/C=C\CCN(C2=O)[C@@H](Cc2ccc(C)cc2)C(=O)N(C)CC(=O)N[C@@H](CCc2cc(F)c(C(F)(F)F)c(F)c2)C(=O)N2C[C@H](OCC)C[C@H]2C(=O)NC2(CC(C)(C)C2)C(=O)N(C)[C@@H](CC(C)(C)C)C(=O)N(C)[C@H](C(=O)N(C)C)CC(=O)N1C [PP2706] | 0.076 nM | A (a compound having 10 or more and less than 20 is denoted as A) | B (a compound having 3 or more and less than 10 is denoted as B) | 2.3 nM
14 | CCCOC[C@H]1C(=O)N[C@@H]([C@@H](C)CC)C(=O)N(C)CC(=O)N(C)[C@H]2C/C=C\CCN(C2=O)[C@@H](Cc2ccc(C)cc2)C(=O)N(C)CC(=O)N[C@@H](CCc2ccc(C(F)(F)F)c(OC)c2)C(=O)N2C[C@H](OCC)C[C@H]2C(=O)NC2(CC(C)(C)C2)C(=O)N(C)[C@@H](CC(C)(C)C)C(=O)N(C)[C@H](C(=O)N(C)C)CC(=O)N1C [PP2712] | 0.11 nM | A (a compound having 10 or more and less than 20 is denoted as A) | B (a compound having 3 or more and less than 10 is denoted as B) | 6.3 nM
